From article PMC7464027, “Design of Curcumin and Flavonoid Derivatives with Acetylcholinesterase and Beta-Secretase Inhibitory Activities Using in Silico Approaches” (Molecules, 2020)

What was measured:
[1] = target: Acetylcholinesterase (AChE) (Electrophorus electricus, UniProt O42275); assay: Ellman's assay with electric eel AChE; assay type: biochemical
beta-secretase (BACE-1) = target: T1, beta-secretase (BACE-1) (Homo sapiens, UniProt P56817); assay: fluorescent BACE-1 activity detection kit (Sigma-Aldrich); assay type: biochemical
T1 construct: gene BACE1
T1 sequence (P56817 46-457): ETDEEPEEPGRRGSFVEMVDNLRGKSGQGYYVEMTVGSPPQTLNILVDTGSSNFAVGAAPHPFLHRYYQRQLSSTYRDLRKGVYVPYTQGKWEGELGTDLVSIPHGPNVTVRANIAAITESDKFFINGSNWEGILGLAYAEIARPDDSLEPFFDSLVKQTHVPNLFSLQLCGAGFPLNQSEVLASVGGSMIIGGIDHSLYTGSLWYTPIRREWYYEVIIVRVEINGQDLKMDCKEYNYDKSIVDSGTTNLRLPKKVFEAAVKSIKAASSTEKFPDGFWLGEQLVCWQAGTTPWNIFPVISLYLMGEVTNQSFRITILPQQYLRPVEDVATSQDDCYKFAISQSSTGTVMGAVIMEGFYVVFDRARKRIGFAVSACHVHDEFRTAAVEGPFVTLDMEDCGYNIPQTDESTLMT

Chain of Acetylcholinesterase (AChE) (O42275 24-633): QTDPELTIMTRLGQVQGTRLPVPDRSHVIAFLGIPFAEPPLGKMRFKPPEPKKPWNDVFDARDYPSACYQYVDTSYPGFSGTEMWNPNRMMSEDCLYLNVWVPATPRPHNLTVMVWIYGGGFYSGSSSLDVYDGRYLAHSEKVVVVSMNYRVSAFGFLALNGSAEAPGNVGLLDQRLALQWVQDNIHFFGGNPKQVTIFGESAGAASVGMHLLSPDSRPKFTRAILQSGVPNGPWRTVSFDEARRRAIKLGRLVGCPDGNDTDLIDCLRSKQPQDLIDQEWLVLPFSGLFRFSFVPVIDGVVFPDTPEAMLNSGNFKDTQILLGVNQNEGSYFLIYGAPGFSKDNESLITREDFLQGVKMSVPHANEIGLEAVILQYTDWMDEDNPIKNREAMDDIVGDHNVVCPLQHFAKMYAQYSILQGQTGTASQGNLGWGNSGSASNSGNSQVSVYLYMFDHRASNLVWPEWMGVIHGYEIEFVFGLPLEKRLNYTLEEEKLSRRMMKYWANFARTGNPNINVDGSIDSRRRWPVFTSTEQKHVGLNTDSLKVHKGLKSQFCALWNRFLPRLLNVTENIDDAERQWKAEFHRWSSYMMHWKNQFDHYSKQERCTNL

| SMILES | IC50 [1] | IC50 (beta-secretase (BACE-1)) |
| --- | --- | --- |
| CN(C)c1cccc(CCC(=O)c2cc(O)ccc2N(C)C)c1 [F24, 1-(2-(dimethylamino)-5-hydroxyphenyl)-3-(3-(dimethylamino)phenyl)propan-1-one] | 80.5 ± 3.07 µM | 3520 ± 770 nM |
| CCOc1cc(C(=O)O)c(C(=O)CCc2ccccc2)c(N(C)C)c1 [F9, 3-(dimethylamino)-5-ethoxy-2-(3-phenylpropanoyl)benzoic acid] | 30 ± 1.24 µM | 1850 ± 330 nM |
